Tested on: PR1 mRNA
Experiment: SA spraying of tobacco plants, Northern blot of PR1 mRNA
Type: in vivo, Nicotiana tabacum
Experimental: It has been shown that SA is involved in the induction of PR genes (reviewed by Malamy and Klessig, 1992) and that this signal molecule also induces the expression of ER chaperones (Denecke et al, 1995). We wanted to investigate whether ER chaperone induction is a consequence of the high synthesis rates of PR genes and used BiP as a model system. Tobacco plants were sprayed with SA (5 mM) and the exact timing of the SA-mediated induction of PR-gene PRI was compared to that of BiP. PR1 was chosen as a representative marker for SA-mediated induction of PR genes as its response to SA is faster and more pronounced than that of acidic chitinase, basic chitinase and basic β-1.3 glucanase (Vidal et al, 1997). […] In contrast SA-induced transcription of PR1 starts only after 6-8 hours and continues to accumulate upto 16 hours after treatment. At this time-point, BiP mRNA levels start to decrease again. We have shown previously that PR1 continuous to accumulate until 48 hours after SA treatment using the same experimental system (Vidal et al, 1997). […] BiP protein levels were also shown to increase (FIG. 7B), with a significant increase noticeable after 4-6 hours of induction.
To investigate further similarities and differences in the SA-mediated induction of BiP and PR genes, we tested if the presence of light is required for the induction. The rationale for this experiment was derived from the observation that SA inhibits catalase, resulting in an increase of active oxygen species in the plant, which would then induce PR genes such as PR1 (Chen et al, 1993). […]
We have shown that the SA-induced expression of PR1 is inhibited in a concentration dependent fashion by the presence of Erwinia carotovora culture filtrate containing cell wall-degrading enzymes (Vidal et al, 1997). […] Total RNA was extracted and the expression of chaperones was determined in relation to PR1. […]

## O=C(O)c1ccccc1O [SA, Salicylic Acid]
SA 5 mM, 6 and 16 hours, dark vs light
  PR1 induction during SA-treatment in the absence of light: almost completely abolished
Sprayed with SA 5 mM
  time after which SA-induced transcription of PR1 starts: 6 to 8 h
  time up to which PR1 continues to accumulate: ≤ 16 h

Reference: patent publication US20060117411A1, “Enhancing plant pathogen resistance via increasing BiP levels” (priority 1998, published 2006)
